Common to all, as to assay: NCI tumour cell line growth inhibition, 48 h
The subject of experiment [1] is EKVX.
In experiment [2] the test system is MDA-N.
In experiment [3] the test system is NCI-H23.
Experiment [4] relates to HOP-62.
Experiment [5] has as its system U-251.
In experiment [6] the test system is OVCAR-4.
For experiment [7], the system named is ACHN.
The subject of experiment [8] is SF-268.
For experiment [9], the system named is IGROV-1.
Experiment [10] has as its system RXF 393.
Experiment [11] has as its system SK-OV-3.
In experiment [12] the test system is OVCAR-3.
The subject of experiment [13] is SR.
Experiment [14] deals with NCI-H226.
The test system of experiment [15] is RPMI-8226.
Experiment [16] deals with UO-31.
Experiment [17] deals with K562.
Experiment [18] deals with UACC-257.
In experiment [19] the test system is SK-MEL-2.

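Five concentrations, 48 hours, 96-well plates. GI50 is the concentration that inhibits growth by half.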 Calls of active or inactive are those of the source. No stated cut-off is given here; in the data, active = GI50 up to about 1.1 µM and inactive = higher. Where a SMILES comes first, the peptide text is derived from it. The star is where a group is joined. Cbz = O=C(OCc1ccccc1)*; Boc = CC(C)(C)OC(=O)*; Bn = c1ccc(C*)cc1

For the molecule `NS(=O)(=O)c1ccc(CNc2nc(-c3cccs3)nc3ccc(I)cc23)cc1`, the GI50 is 3.85 µM (inactive) in experiment [1]; 19.5 µM (inactive) in experiment [2]; 17.9 µM (inactive) in [3]; 21.4 µM (inactive) in [4]; 18.1 µM (inactive) in experiment [5]; 10.7 µM (inactive) in experiment [6]. Further, the GI50 in experiment [7] is 18.4 µM (inactive); in experiment [8], 23.1 µM (inactive); in experiment [9], 12.2 µM (inactive); in experiment [10] it was 19.6 µM (inactive); in experiment [11], 22.6 µM (inactive); in experiment [12], 11.2 µM (inactive). Besides, the GI50 in [13] was 15 µM (inactive); in experiment [14], 17.9 µM (inactive); in experiment [15], 18.6 µM (inactive); in experiment [16], 2.11 µM (inactive).
Turning to `N[C@H](Cc1ccc2oc3cc(=O)c4ccccc4c-3nc2c1)C(=O)O`, the GI50 in experiment [1] was > 100 µM (inactive); in [2] it was 15.3 µM (inactive); in [3], 23.7 µM (inactive); in experiment [4], 46.5 µM (inactive); in [5] it was 98.4 µM (inactive); in experiment [6], > 100 µM (inactive). Moreover, the GI50 in experiment [7] is > 100 µM (inactive); in [8], 79.6 µM (inactive); in [9] it was 32.3 µM (inactive); in experiment [17], 26.2 µM (inactive); in experiment [18] it was 29.8 µM (inactive); in experiment [10], 70.1 µM (inactive). Also, the GI50 in experiment [11] was > 100 µM (inactive); in experiment [12], 29.2 µM (inactive); in experiment [13], 17.9 µM (inactive); in [14], 40.8 µM (inactive); in experiment [15], 24.2 µM (inactive); in experiment [16] it was > 100 µM (inactive).
Turning to `Cc1c[nH]c(C(=O)O)c1-c1ccc2c(-c3ccccc3)nc3ccccc3n12`, the GI50 in experiment [1] is 20.5 µM (inactive); in experiment [2], 19 µM (inactive); in [3] it was 35.4 µM (inactive); in experiment [4], 15.7 µM (inactive); in experiment [5], 48.3 µM (inactive); in experiment [6], 41 µM (inactive). Also, the GI50 is 20.7 µM (inactive) in experiment [19]; 52.4 µM (inactive) in [7]; 28.2 µM (inactive) in [8]; 22.9 µM (inactive) in experiment [9]; 41.5 µM (inactive) in [17]; 30.8 µM (inactive) in experiment [18]. Further, the GI50 in experiment [10] is 18.2 µM (inactive); in [11], 32.1 µM (inactive); in experiment [12], 16.4 µM (inactive); in experiment [13], 33 µM (inactive); in [14], 20.3 µM (inactive); in experiment [16], 34.4 µM (inactive).
Regarding `Cc1ccc(SCC(OCn2cnc3c(Cl)nc(N)nc32)[C@H](C)F)cc1` (some centres not stated), the GI50 in experiment [2] is > 100 µM (inactive); in experiment [3], 50.9 µM (inactive); in [4], > 100 µM (inactive); in [5], 98.4 µM (inactive); in experiment [6], 71.3 µM (inactive); in experiment [19], > 100 µM (inactive). For the same molecule, the GI50 in [7] was 37.5 µM (inactive); in experiment [8], > 100 µM (inactive); in [9], > 100 µM (inactive); in experiment [18] it was 21.1 µM (inactive); in experiment [11], > 100 µM (inactive); in experiment [12] it was > 100 µM (inactive). Moreover, the GI50 was 28.2 µM (inactive) in experiment [13], > 100 µM (inactive) in [14], 36.9 µM (inactive) in experiment [15] and 59.3 µM (inactive) in [16].
With `CC(C)(C)OC(=O)NC(Cc1ccc(OCc2ccccc2)cc1)C(=O)NC(CCCCNC(=O)OCc1ccccc1)C(=O)O` (configuration not stated) (Boc-Tyr(Bn)-Lys(Cbz)-OH; configuration not given here), the GI50 in [1] was > 100 µM (inactive); in [2], 40.1 µM (inactive); in experiment [3], 29.2 µM (inactive); in [4], 61.1 µM (inactive); in [5] it was 33.8 µM (inactive); in experiment [19], 28 µM (inactive). The GI50 in experiment [9] was 34 µM (inactive); in experiment [17], 42.8 µM (inactive); in experiment [18], 87.9 µM (inactive); in [10] it was 17.8 µM (inactive); in experiment [13] it was 28.6 µM (inactive); in experiment [14] it was 96.4 µM (inactive). The GI50 in experiment [15] was 32.7 µM (inactive); in experiment [16], 73.8 µM (inactive).
For the molecule `COc1ccc(SCc2cc(OCc3ccccc3)c(OCc3ccccc3)c(OCc3ccccc3)c2)cc1`, the GI50 in [1] was 2 µM (inactive); in experiment [2], 1.83 µM (inactive); in experiment [3], 1.75 µM (inactive); in experiment [4], 1.81 µM (inactive); in [5], 1.77 µM (inactive); in experiment [6], 1.8 µM (inactive). Further, the GI50 is 1.73 µM (inactive) in experiment [7]; 1.77 µM (inactive) in [8]; 1.79 µM (inactive) in experiment [9]; 1.21 µM (inactive) in experiment [17]; 1.71 µM (inactive) in [18]; 1.92 µM (inactive) in experiment [10]. The GI50 in [11] is 1.77 µM (inactive); in experiment [12], 1.65 µM (inactive); in experiment [13] it was 0.493 µM (active); in experiment [14], 1.9 µM (inactive); in [15], 2.84 µM (inactive); in experiment [16], 1.76 µM (inactive).
As for `CCOC(=O)C(CS)NC(=O)CCCCCCCC(=O)O` (configuration not stated), the GI50 in experiment [1], in [2], in experiment [3], in [4], in experiment [5] and in [6] was > 100 µM (inactive) in each case. The GI50 in [19] is > 100 µM (inactive); in experiment [7] it was 78.3 µM (inactive); in experiment [9], > 100 µM (inactive); in experiment [17], > 100 µM (inactive); in experiment [18] it was > 100 µM (inactive); in experiment [11], > 100 µM (inactive). Also, the GI50 in experiment [12], in [13], in experiment [14], in experiment [15] and in experiment [16] was > 100 µM (inactive) in each case.
Turning to `COc1ccc(Nc2nc3c([nH]2)c(=O)n(C)c(=O)n3C)cc1`, the GI50 in experiment [1], in experiment [2], in experiment [3], in experiment [4], in experiment [6] and in [8] was > 10 µM (inactive) throughout. The GI50 in experiment [9], in experiment [17], in experiment [18], in experiment [10], in [11] and in experiment [13] was > 10 µM (inactive) in each case. In experiment [15], the GI50 is > 10 µM (inactive).
In the case of `CCOC(=O)C1(Cc2ccccc2)Cc2ccccc2C1=O` (configuration not stated), the GI50 in experiment [1] was 20.7 µM (inactive); in [2] it was 16.4 µM (inactive); in [3], 17.3 µM (inactive); in experiment [4] it was 35.2 µM (inactive); in experiment [5] it was 34.6 µM (inactive); in experiment [6], 18.7 µM (inactive). The GI50 in experiment [19] was 14.8 µM (inactive); in [7], 28.1 µM (inactive); in experiment [8] it was 29.2 µM (inactive); in experiment [9], 35.2 µM (inactive); in [17], 24 µM (inactive); in [18] it was > 10 µM (inactive). Besides, the GI50 is 30.8 µM (inactive) in experiment [11]; 30.8 µM (inactive) in [12]; 22 µM (inactive) in [13]; 19.7 µM (inactive) in [14]; 20.4 µM (inactive) in experiment [15]; 14.6 µM (inactive) in experiment [16].
Take `COC(=O)CSc1[nH]c2nc(C)nc(Nc3ccccc3)c2c1C#N`: the GI50 in experiment [1], in [2], in experiment [3], in [4], in experiment [6] and in [8] was > 10 µM (inactive) in each case. Besides, the GI50 in experiment [9], in experiment [17], in [18], in experiment [10], in [11] and in experiment [13] was > 10 µM (inactive) each time. Besides, the GI50 in [15] is > 10 µM (inactive).
`CC(/C=C/c1ccccc1)=N\NC(=S)N/N=C(C)/C=C/c1ccccc1`: the GI50 is 47.6 µM (inactive) in experiment [1]; 25.5 µM (inactive) in experiment [2]; 23.7 µM (inactive) in [3]; 28.1 µM (inactive) in [4]; 4.59 µM (inactive) in [5]; 5.4 µM (inactive) in experiment [6]. The GI50 was 10.9 µM (inactive) in [19]; 23.6 µM (inactive) in [7]; 4.22 µM (inactive) in [8]; 13.4 µM (inactive) in experiment [9]; 4.86 µM (inactive) in experiment [17]; 20.8 µM (inactive) in experiment [18]. The GI50 in experiment [10] is 13.7 µM (inactive); in experiment [11], 13.3 µM (inactive); in [12], 5.64 µM (inactive); in experiment [13], 5.93 µM (inactive); in experiment [14] it was 21 µM (inactive); in [16] it was 4.33 µM (inactive).
In the case of `CC(C)[C@@H]1CC[C@@H](C)C[C@H]1OC(=O)/C=C1/C2C=CC(O2)C1C(=O)O[C@@H]1C[C@H](C)CC[C@H]1C(C)C` (some centres not stated), the GI50 in experiment [1], in [2], in experiment [3], in [4], in experiment [5] and in experiment [6] was > 100 µM (inactive) each time. Also, the GI50 in experiment [7] is > 100 µM (inactive); in experiment [8], > 100 µM (inactive); in experiment [9], > 100 µM (inactive); in [17], 51.4 µM (inactive); in experiment [18] it was 46.2 µM (inactive); in experiment [10] it was > 100 µM (inactive). For the same molecule, the GI50 was > 100 µM (inactive) in experiment [11]; > 100 µM (inactive) in experiment [12]; 41.7 µM (inactive) in experiment [13]; 28.4 µM (inactive) in [14]; > 100 µM (inactive) in experiment [15]; > 100 µM (inactive) in [16].

(Values after ChEMBL document CHEMBL1201862, “PubChem BioAssay data set” (2004).)
